# Assay results: ChEMBL document CHEMBL3784938, “Novel heterocyclic ring-fused oleanolic acid derivatives as osteoclast inhibitors for osteoporosis” (Medchemcomm, 2016)
# What was measured:
# RAW264.7 [1] = assay: Antiosteoclast activity in mouse RAW264.7 cells assessed as inhibition of RANKL-induced osteoclast differentiation at 20 uM after 5 days by TRAP assay; assay type: functional; details: RAW264.7, 120 h
# RAW264.7 [2] = assay: Antiosteoclast activity in mouse RAW264.7 cells assessed as inhibition of RANKL-induced osteoclast differentiation at 2 uM after 5 days by TRAP assay; assay type: functional; details: RAW264.7, 120 h
# [3] = Cytotoxicity against mouse RAW264.7 cells assessed as inhibition of cell viability at 20 uM after 24 hrs by MTT assay; assay type: cell-based; details: read-out: INH
# [4] = Cytotoxicity against mouse RAW264.7 cells assessed as inhibition of cell viability at 10 uM after 24 hrs by MTT assay; assay type: cell-based; details: read-out: INH
# [5] = Cytotoxicity against mouse RAW264.7 cells assessed as inhibition of cell viability at 5 uM after 24 hrs by MTT assay; assay type: cell-based; details: read-out: INH
# [6] = Cytotoxicity against mouse RAW264.7 cells assessed as inhibition of cell viability at 2 uM after 24 hrs by MTT assay; assay type: cell-based; details: read-out: INH
# RAW264.7 [7] = assay: cells; details: Mus musculus, RAW264.7, 120 h
# Description: Antiosteoclast activity in mouse RAW264.7 cells assessed as inhibition of RANKL-induced osteoclast differentiation after 5 days by TRAP assay
SMILES,inhibition at 20 µM (RAW264.7 [1]) [%],inhibition at 2 µM (RAW264.7 [2]) [%],also measured
CC1(C)CC[C@]2(C(=O)NC3CCN(Cc4ccccc4)CC3)CC[C@]3(C)C(=CC[C@@H]4[C@@]5(C)Cc6cn(S(=O)(=O)c7ccc(C(C)(C)C)cc7)nc6C(C)(C)[C@@H]5CC[C@]43C)[C@@H]2C1,65.6,39.2,
CC1(C)CC[C@]2(C(=O)NCc3ccccc3)CC[C@]3(C)C(=CC[C@@H]4[C@@]5(C)Cc6cn(S(=O)(=O)c7ccc(Cl)cc7)nc6C(C)(C)[C@@H]5CC[C@]43C)[C@@H]2C1,0,0,
Cc1noc(C)c1S(=O)(=O)n1cc2c(n1)C(C)(C)[C@@H]1CC[C@]3(C)[C@H](CC=C4[C@@H]5CC(C)(C)CC[C@]5(C(=O)NC5CCN(Cc6ccccc6)CC5)CC[C@]43C)[C@@]1(C)C2,69.5,64,
CC1(C)CC[C@]2(C(=O)NC3CCN(Cc4ccccc4)CC3)CC[C@]3(C)C(=CC[C@@H]4[C@@]5(C)Cc6cn(S(=O)(=O)c7ccc(Br)cc7)nc6C(C)(C)[C@@H]5CC[C@]43C)[C@@H]2C1,19.6,20.3,
CC1(C)CC[C@]2(C(=O)NCCCN3CCOCC3)CC[C@]3(C)C(=CC[C@@H]4[C@@]5(C)Cc6c[nH]nc6C(C)(C)[C@@H]5CC[C@]43C)[C@@H]2C1,100,49.8,
CC1(C)CC[C@]2(C(=O)NC3CCN(Cc4ccccc4)CC3)CC[C@]3(C)C(=CC[C@@H]4[C@@]5(C)Cc6c[nH]nc6C(C)(C)[C@@H]5CC[C@]43C)[C@@H]2C1,100,88.6,
CC1(C)CC[C@]2(C(=O)O)CC[C@]3(C)C(=CC[C@@H]4[C@@]5(C)Cc6cnoc6C(C)(C)[C@@H]5CC[C@]43C)[C@@H]2C1,100,27.4,
CC1(C)CC[C@]2(C(=O)NCCN3CCCCC3)CC[C@]3(C)C(=CC[C@@H]4[C@@]5(C)Cc6cn(S(=O)(=O)c7ccc(C(C)(C)C)cc7)nc6C(C)(C)[C@@H]5CC[C@]43C)[C@@H]2C1,89.8,20.8,
CC1(C)CC[C@]2(C(=O)NCc3ccccc3)CC[C@]3(C)C(=CC[C@@H]4[C@@]5(C)Cc6cnoc6C(C)(C)[C@@H]5CC[C@]43C)[C@@H]2C1,69.3,27.3,
Cc1noc(C)c1S(=O)(=O)n1cc2c(n1)C(C)(C)[C@@H]1CC[C@]3(C)[C@H](CC=C4[C@@H]5CC(C)(C)CC[C@]5(C(=O)NCCN5CCCCC5)CC[C@]43C)[C@@]1(C)C2,100,22.3,"cytotoxicity at 24 h, 20 µM [3]: 72%; cytotoxicity at 24 h, 10 µM [4]: 70.7%; cytotoxicity at 24 h, 5 µM [5]: 0%; cytotoxicity at 24 h, 2 µM [6]: 0%"
Cc1noc(C)c1S(=O)(=O)n1cc2c(n1)C(C)(C)[C@@H]1CC[C@]3(C)[C@H](CC=C4[C@@H]5CC(C)(C)CC[C@]5(C(=O)NCCCN5CCOCC5)CC[C@]43C)[C@@]1(C)C2,100,75.2,
CC1(C)CC[C@]2(C(=O)NCCN3CCCCC3)CC[C@]3(C)C(=CC[C@@H]4[C@@]5(C)Cc6cn(S(=O)(=O)c7ccc(Cl)cc7)nc6C(C)(C)[C@@H]5CC[C@]43C)[C@@H]2C1,100,0.9,
COc1ccc(S(=O)(=O)n2cc3c(n2)C(C)(C)[C@@H]2CC[C@]4(C)[C@H](CC=C5[C@@H]6CC(C)(C)CC[C@]6(C(=O)NCCCN6CCOCC6)CC[C@]54C)[C@@]2(C)C3)cc1OC,50.9,34.4,
CC1(C)CC[C@]2(C(=O)NCCCN3CCOCC3)CC[C@]3(C)C(=CC[C@@H]4[C@@]5(C)Cc6cnoc6C(C)(C)[C@@H]5CC[C@]43C)[C@@H]2C1,45.9,23.2,
CC1(C)CC[C@]2(C(=O)NC3CCN(Cc4ccccc4)CC3)CC[C@]3(C)C(=CC[C@@H]4[C@@]5(C)Cc6cn(S(=O)(=O)c7ccc(C(F)(F)F)cc7)nc6C(C)(C)[C@@H]5CC[C@]43C)[C@@H]2C1,82.1,83.6,
CC1(C)CC[C@]2(C(=O)NC3CCN(Cc4ccccc4)CC3)CC[C@]3(C)C(=CC[C@@H]4[C@@]5(C)Cc6cnoc6C(C)(C)[C@@H]5CC[C@]43C)[C@@H]2C1,99.6,17.6,

SMILES,inhibition at 20 µM (RAW264.7 [1]) [%],inhibition at 2 µM (RAW264.7 [2]) [%],also measured
CC1(C)CC[C@]2(C(=O)O)CC[C@]3(C)C(=CC[C@@H]4[C@@]5(C)Cc6cn[nH]c6C(C)(C)[C@@H]5CC[C@]43C)[C@@H]2C1,99,32.1,
CC1(C)CC[C@]2(C(=O)NCc3ccccc3)CC[C@]3(C)C(=CC[C@@H]4[C@@]5(C)Cc6c[nH]nc6C(C)(C)[C@@H]5CC[C@]43C)[C@@H]2C1,100,67.7,
Cc1cccc(S(=O)(=O)n2cc3c(n2)C(C)(C)[C@@H]2CC[C@]4(C)[C@H](CC=C5[C@@H]6CC(C)(C)CC[C@]6(C(=O)NCCN6CCCCC6)CC[C@]54C)[C@@]2(C)C3)c1,100,33.6,
CC1(C)CC[C@]2(C(=O)NC3CCN(Cc4ccccc4)CC3)CC[C@]3(C)C(=CC[C@@H]4[C@@]5(C)Cc6cn(S(=O)(=O)c7ccc(F)cc7)nc6C(C)(C)[C@@H]5CC[C@]43C)[C@@H]2C1,82.9,73,
CC1(C)CC[C@]2(C(=O)NC3CCN(Cc4ccccc4)CC3)CC[C@]3(C)C(=CC[C@@H]4[C@@]5(C)Cc6cn(S(=O)(=O)c7ccc(Cl)cc7)nc6C(C)(C)[C@@H]5CC[C@]43C)[C@@H]2C1,41.3,18.2,
Cn1cc2c(n1)C(C)(C)[C@@H]1CC[C@]3(C)[C@H](CC=C4[C@@H]5CC(C)(C)CC[C@]5(C(=O)NCc5ccccc5)CC[C@]43C)[C@@]1(C)C2,99.7,76,
Cn1cnc(S(=O)(=O)n2cc3c(n2)C(C)(C)[C@@H]2CC[C@]4(C)[C@H](CC=C5[C@@H]6CC(C)(C)CC[C@]6(C(=O)NCCN6CCCCC6)CC[C@]54C)[C@@]2(C)C3)c1,100,89.5,
CC1(C)CC[C@]2(C(=O)NCCCN3CCOCC3)CC[C@]3(C)C(=CC[C@@H]4[C@@]5(C)Cc6cn(S(=O)(=O)c7ccc(C(C)(C)C)cc7)nc6C(C)(C)[C@@H]5CC[C@]43C)[C@@H]2C1,97.7,56.1,
CC1(C)CC[C@]2(C(=O)O)CC[C@]3(C)C(=CC[C@@H]4[C@@]5(C)CC[C@H](O)C(C)(C)[C@@H]5CC[C@]43C)[C@@H]2C1 [OLEANOLIC_ACID],82.1,11.4,
CC1(C)CC[C@]2(C(=O)NCCN3CCCCC3)CC[C@]3(C)C(=CC[C@@H]4[C@@]5(C)Cc6cnoc6C(C)(C)[C@@H]5CC[C@]43C)[C@@H]2C1,100,78.5,
CC1(C)CC[C@]2(C(=O)NCCCN3CCOCC3)CC[C@]3(C)C(=CC[C@@H]4[C@@]5(C)Cc6cn(S(=O)(=O)c7ccc(OC(F)(F)F)cc7)nc6C(C)(C)[C@@H]5CC[C@]43C)[C@@H]2C1,86.3,31.8,
CC1(C)CC[C@]2(C(=O)NCCN3CCCCC3)CC[C@]3(C)C(=CC[C@@H]4[C@@]5(C)Cc6cn(S(=O)(=O)c7ccc(C(F)(F)F)cc7)nc6C(C)(C)[C@@H]5CC[C@]43C)[C@@H]2C1,100,100,IC50 (RAW264.7 [7]): 68 nM
CC1(C)CC[C@]2(C(=O)NCCCN3CCOCC3)CC[C@]3(C)C(=CC[C@@H]4[C@@]5(C)Cc6cn(S(=O)(=O)c7ccc(Cl)cc7)nc6C(C)(C)[C@@H]5CC[C@]43C)[C@@H]2C1,56.1,20.6,
CC1(C)CC[C@]2(C(=O)NCCCN3CCOCC3)CC[C@]3(C)C(=CC[C@@H]4[C@@]5(C)Cc6cn(S(=O)(=O)c7ccc(F)cc7)nc6C(C)(C)[C@@H]5CC[C@]43C)[C@@H]2C1,97.7,56.1,
Cn1cnc(S(=O)(=O)n2cc3c(n2)C(C)(C)[C@H]2CC[C@@]4(C)[C@@H](CC=C5[C@H]6CC(C)(C)CC[C@@]6(C(=O)NC6CCN(Cc7ccccc7)CC6)CC[C@@]54C)[C@]2(C)C3)c1,100,80.7,
CC1(C)CC[C@]2(C(=O)NC3CCN(Cc4ccccc4)CC3)CC[C@]3(C)C(=CC[C@@H]4[C@@]5(C)Cc6cn(S(=O)(=O)c7ccc(OC(F)(F)F)cc7)nc6C(C)(C)[C@@H]5CC[C@]43C)[C@@H]2C1,71.9,2.2,
